According to the kinase profiling compilation of Christmann-Franck et al. (2016):

Tests used:
Assay in all cases: KINOMEscan competition binding
Conditions in all cases: compound 10.0 µM
ACVR2B (human) = ACVR2B (human) (UniProt Q13705)
AXL (human) = AXL (human) (UniProt P30530)
CASK (human) = CASK (human) (UniProt O14936)
CDC42BPA (human) = CDC42BPA (human) (UniProt Q5VT25)
CDK14 (human) = CDK14 (human) (UniProt O94921)
CDK7 (human) = CDK7 (human) (UniProt P50613)
CDKL2 (human) = CDKL2 (human) (UniProt Q92772)
CSNK1D (human) = CSNK1D (human) (UniProt P48730)
CSNK1E (human) = CSNK1E (human) (UniProt P49674)
CSNK1G1 (human) = CSNK1G1 (human) (UniProt Q9HCP0)
CSNK1G3 (human) = CSNK1G3 (human) (UniProt Q9Y6M4)
DAPK2 (human) = DAPK2 (human) (UniProt Q9UIK4)
DYRK2 (human) = DYRK2 (human) (UniProt Q92630)
EPHA8 (human) = EPHA8 (human) (UniProt P29322)
EPHB2 (human) = EPHB2 (human) (UniProt P29323)
ERBB2 (human) = ERBB2 (human) (UniProt P04626)
ERBB4 (human) = ERBB4 (human) (UniProt Q15303)
FER (human) = FER (human) (UniProt P16591)
FGFR3 (human) = FGFR3 (human) (UniProt P22607)
IGF1R (human) = IGF1R (human) (UniProt P08069)
INSRR (human) = INSRR (human) (UniProt P14616)
LYN (human) = LYN (human) (UniProt P07948)
MAP3K11 (human) = MAP3K11 (human) (UniProt Q16584)
MAPK11 (human) = MAPK11 (human) (UniProt Q15759)
MARK2 (human) = MARK2 (human) (UniProt Q7KZI7)
MINK1 (human) = MINK1 (human) (UniProt Q8N4C8)
NLK (human) = NLK (human) (UniProt Q9UBE8)
OXSR1 (human) = OXSR1 (human) (UniProt O95747)
PAK2 (human) = PAK2 (human) (UniProt Q13177)
PIK3C2B (human) = PIK3C2B (human) (UniProt O00750)
PIK3CB (human) = PIK3CB (human) (UniProt P42338)
PRKAA1 (human) = PRKAA1 (human) (UniProt Q13131)
PRPF4B (human) = PRPF4B (human) (UniProt Q13523)
RET (human) = RET (human) (UniProt P07949)
RIOK2 (human) = RIOK2 (human) (UniProt Q9BVS4)
STK33 (human) = STK33 (human) (UniProt Q9BYT3)
TESK1 (human) = TESK1 (human) (UniProt Q15569)
TLK2 (human) = TLK2 (human) (UniProt Q86UE8)
VRK2 (human) = VRK2 (human) (UniProt Q86Y07)
MERTK (human) = MERTK (human) (UniProt Q12866)

CDC42BPA (human), sequence (Q5VT25 whole entry, looked up): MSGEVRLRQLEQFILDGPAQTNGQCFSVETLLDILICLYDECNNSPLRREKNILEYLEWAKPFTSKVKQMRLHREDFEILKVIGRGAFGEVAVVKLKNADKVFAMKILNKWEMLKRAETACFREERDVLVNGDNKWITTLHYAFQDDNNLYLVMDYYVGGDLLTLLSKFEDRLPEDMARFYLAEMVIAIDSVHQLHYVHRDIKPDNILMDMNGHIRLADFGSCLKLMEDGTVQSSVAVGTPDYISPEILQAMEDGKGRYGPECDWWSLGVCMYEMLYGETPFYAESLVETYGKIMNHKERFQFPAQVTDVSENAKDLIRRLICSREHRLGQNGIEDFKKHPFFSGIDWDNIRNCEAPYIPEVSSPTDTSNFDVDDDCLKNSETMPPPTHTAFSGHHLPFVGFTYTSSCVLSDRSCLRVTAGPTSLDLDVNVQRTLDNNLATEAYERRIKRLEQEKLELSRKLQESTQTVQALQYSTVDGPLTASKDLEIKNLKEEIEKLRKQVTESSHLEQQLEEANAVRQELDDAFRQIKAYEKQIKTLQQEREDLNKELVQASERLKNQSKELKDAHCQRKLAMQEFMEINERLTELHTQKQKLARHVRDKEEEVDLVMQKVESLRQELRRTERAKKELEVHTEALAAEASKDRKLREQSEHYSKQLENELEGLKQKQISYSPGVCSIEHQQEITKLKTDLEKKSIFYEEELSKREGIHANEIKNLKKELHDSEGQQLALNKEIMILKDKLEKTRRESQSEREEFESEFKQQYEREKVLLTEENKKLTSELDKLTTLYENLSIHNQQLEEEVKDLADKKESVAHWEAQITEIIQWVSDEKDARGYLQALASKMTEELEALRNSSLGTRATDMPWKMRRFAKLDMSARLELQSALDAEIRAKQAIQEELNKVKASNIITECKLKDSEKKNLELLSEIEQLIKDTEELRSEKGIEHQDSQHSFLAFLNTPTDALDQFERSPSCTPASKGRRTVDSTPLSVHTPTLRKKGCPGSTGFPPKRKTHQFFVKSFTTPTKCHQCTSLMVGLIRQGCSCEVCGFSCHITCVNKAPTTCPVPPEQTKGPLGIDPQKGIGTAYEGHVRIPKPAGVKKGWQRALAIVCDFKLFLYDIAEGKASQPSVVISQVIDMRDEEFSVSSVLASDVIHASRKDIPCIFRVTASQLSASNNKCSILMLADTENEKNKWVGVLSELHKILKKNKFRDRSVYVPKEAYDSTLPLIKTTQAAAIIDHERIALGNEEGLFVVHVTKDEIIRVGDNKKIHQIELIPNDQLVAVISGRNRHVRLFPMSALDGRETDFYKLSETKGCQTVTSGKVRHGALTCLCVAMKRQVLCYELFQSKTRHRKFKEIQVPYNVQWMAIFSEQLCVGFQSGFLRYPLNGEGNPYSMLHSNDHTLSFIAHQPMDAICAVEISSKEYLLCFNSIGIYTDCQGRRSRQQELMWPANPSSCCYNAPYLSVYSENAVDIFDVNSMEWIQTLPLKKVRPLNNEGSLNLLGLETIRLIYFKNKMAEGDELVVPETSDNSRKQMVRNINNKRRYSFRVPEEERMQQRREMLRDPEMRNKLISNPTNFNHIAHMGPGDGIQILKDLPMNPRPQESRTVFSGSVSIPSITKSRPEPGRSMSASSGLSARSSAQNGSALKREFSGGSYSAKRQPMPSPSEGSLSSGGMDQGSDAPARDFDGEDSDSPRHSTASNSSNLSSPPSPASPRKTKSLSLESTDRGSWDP
PIK3C2B (human), sequence (O00750 whole entry, looked up): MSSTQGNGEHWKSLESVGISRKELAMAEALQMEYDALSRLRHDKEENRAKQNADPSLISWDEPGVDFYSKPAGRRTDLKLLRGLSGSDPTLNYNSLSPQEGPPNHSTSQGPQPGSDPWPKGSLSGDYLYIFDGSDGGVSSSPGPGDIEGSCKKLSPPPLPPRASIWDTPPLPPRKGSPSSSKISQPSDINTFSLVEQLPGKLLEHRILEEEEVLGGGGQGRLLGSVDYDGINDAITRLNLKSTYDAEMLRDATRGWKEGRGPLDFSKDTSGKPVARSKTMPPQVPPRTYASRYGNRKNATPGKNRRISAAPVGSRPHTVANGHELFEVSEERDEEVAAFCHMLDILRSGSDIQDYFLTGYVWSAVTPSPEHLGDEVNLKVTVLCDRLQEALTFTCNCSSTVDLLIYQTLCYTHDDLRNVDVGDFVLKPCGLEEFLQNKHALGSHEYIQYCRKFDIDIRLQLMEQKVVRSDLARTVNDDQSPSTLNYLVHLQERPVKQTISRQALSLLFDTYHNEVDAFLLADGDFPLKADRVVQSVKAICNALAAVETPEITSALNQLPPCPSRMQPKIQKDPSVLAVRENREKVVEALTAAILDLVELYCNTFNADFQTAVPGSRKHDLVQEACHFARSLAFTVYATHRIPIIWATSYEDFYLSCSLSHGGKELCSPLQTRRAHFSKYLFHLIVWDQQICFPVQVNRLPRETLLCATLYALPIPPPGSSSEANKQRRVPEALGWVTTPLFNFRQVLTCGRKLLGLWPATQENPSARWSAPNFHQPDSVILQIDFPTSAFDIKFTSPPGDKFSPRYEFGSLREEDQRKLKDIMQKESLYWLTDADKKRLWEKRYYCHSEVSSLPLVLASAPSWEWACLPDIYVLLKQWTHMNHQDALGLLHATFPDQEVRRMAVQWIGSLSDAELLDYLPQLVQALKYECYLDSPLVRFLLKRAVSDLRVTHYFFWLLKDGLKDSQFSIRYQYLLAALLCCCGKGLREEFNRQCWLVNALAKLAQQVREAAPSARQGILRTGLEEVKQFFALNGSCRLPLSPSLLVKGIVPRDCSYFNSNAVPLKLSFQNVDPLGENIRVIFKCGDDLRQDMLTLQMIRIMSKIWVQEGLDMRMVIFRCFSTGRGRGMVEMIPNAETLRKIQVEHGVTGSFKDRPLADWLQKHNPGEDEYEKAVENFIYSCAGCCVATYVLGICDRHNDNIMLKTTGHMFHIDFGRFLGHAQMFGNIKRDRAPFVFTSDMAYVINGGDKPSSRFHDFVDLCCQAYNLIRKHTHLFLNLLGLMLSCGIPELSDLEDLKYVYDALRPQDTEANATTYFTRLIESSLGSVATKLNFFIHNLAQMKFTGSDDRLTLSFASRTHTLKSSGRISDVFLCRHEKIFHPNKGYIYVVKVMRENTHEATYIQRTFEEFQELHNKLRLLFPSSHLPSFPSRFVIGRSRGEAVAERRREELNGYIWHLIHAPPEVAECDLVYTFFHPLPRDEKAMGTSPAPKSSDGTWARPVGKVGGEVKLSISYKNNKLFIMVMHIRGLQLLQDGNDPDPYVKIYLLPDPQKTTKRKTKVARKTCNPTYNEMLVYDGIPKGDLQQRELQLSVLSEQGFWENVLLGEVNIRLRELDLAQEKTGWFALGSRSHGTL
ERBB2 (human), sequence (P04626 whole entry, looked up): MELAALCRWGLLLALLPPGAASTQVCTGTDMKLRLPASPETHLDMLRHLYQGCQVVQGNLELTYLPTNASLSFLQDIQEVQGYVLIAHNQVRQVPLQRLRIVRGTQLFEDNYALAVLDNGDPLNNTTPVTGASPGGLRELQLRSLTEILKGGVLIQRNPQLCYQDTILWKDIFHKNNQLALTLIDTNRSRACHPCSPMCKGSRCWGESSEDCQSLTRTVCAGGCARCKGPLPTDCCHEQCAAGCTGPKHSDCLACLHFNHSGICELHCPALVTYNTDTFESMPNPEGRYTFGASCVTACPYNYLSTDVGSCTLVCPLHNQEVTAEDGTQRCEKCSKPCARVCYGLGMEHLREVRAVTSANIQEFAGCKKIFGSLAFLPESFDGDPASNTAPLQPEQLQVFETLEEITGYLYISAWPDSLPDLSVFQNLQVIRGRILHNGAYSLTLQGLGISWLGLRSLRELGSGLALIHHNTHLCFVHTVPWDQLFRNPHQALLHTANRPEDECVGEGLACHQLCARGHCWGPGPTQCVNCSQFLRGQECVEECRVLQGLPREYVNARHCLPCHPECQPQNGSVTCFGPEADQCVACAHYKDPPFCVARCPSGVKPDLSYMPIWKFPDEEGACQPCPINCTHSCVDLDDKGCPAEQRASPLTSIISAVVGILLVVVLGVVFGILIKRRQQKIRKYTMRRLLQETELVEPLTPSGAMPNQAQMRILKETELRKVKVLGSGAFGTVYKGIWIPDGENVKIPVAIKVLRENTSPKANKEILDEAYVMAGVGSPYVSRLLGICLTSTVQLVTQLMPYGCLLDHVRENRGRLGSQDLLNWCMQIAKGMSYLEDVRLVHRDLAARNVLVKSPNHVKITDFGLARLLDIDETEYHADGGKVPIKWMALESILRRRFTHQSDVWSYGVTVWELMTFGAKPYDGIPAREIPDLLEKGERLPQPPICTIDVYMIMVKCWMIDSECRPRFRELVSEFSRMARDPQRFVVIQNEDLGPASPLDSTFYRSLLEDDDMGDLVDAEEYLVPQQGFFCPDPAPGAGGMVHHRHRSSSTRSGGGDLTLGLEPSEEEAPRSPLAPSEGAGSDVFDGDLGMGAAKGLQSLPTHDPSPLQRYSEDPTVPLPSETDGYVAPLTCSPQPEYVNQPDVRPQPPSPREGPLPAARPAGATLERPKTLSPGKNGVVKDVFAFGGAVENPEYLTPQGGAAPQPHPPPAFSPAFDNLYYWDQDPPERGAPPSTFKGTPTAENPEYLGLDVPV
CDK14 (human), sequence (O94921 whole entry, looked up): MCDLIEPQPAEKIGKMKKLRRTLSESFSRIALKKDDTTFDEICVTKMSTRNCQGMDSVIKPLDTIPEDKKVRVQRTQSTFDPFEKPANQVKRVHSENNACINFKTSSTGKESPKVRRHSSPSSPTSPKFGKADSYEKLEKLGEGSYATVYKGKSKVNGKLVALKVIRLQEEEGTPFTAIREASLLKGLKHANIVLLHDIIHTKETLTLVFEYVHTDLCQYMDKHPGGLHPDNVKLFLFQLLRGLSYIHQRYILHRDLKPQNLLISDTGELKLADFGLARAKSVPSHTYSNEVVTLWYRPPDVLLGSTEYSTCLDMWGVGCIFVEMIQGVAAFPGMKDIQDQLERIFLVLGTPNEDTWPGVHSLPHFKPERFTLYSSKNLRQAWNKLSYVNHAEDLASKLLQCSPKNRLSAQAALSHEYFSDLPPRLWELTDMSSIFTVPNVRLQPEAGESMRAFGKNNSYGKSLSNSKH

SMILES | kinase still bound, per cent of control (ACVR2B (human)) | kinase still bound, per cent of control (AXL (human)) | kinase still bound, per cent of control (CASK (human)) | kinase still bound, per cent of control (CDC42BPA (human)) | kinase still bound, per cent of control (CDK14 (human)) | kinase still bound, per cent of control (CDK7 (human)) | kinase still bound, per cent of control (CDKL2 (human)) | kinase still bound, per cent of control (CSNK1D (human)) | kinase still bound, per cent of control (CSNK1E (human)) | kinase still bound, per cent of control (CSNK1G1 (human)) | kinase still bound, per cent of control (CSNK1G3 (human)) | kinase still bound, per cent of control (DAPK2 (human)) | kinase still bound, per cent of control (DYRK2 (human)) | kinase still bound, per cent of control (EPHA8 (human)) | kinase still bound, per cent of control (EPHB2 (human)) | kinase still bound, per cent of control (ERBB2 (human)) | kinase still bound, per cent of control (ERBB4 (human)) | kinase still bound, per cent of control (FGFR3 (human)) | kinase still bound, per cent of control (IGF1R (human)) | kinase still bound, per cent of control (INSRR (human)) | other results
CNC(=O)c1cc(Oc2ccc(NC(=O)Nc3ccc(Cl)c(C(F)(F)F)c3)cc2)ccn1 | 75% | 7.8% | 90% | 95% | 8.6% | 4.2% | 0.3% | 100% | 100% | 100% | 91% | 87% | 95% | 3.9% | 17% | 100% | 100% | 31% | 100% | 97% | kinase still bound, per cent of control (FER (human)): 87%; kinase still bound, per cent of control (LYN (human)): 16%; kinase still bound, per cent of control (MAP3K11 (human)): 99%; kinase still bound, per cent of control (MAPK11 (human)): 0.2%; kinase still bound, per cent of control (MARK2 (human)): 98%; kinase still bound, per cent of control (MINK1 (human)): 46%; kinase still bound, per cent of control (NLK (human)): 32%; kinase still bound, per cent of control (OXSR1 (human)): 100%; kinase still bound, per cent of control (PAK2 (human)): 73%; kinase still bound, per cent of control (PIK3C2B (human)): 92%; kinase still bound, per cent of control (PIK3CB (human)): 100%; kinase still bound, per cent of control (PRKAA1 (human)): 42%; kinase still bound, per cent of control (PRPF4B (human)): 100%; kinase still bound, per cent of control (RET (human)): 0.05%; kinase still bound, per cent of control (RIOK2 (human)): 97%; kinase still bound, per cent of control (STK33 (human)): 33%; kinase still bound, per cent of control (TESK1 (human)): 62%; kinase still bound, per cent of control (TLK2 (human)): 91%; kinase still bound, per cent of control (VRK2 (human)): 100%
NC(=O)Nc1cc(-c2cccc(F)c2)sc1C(=O)N[C@@H]1CCCNC1 | 3.8% | 0% | 92% | 62% | 100% | 4.9% | 60% | 15% | 11% | 7.6% | 4.6% | 5.4% | 26% | 0.4% | 9.6% | 0% | 4.4% | 16% | 44% | 22% | kinase still bound, per cent of control (LYN (human)): 0.65%; kinase still bound, per cent of control (MAPK11 (human)): 77%; kinase still bound, per cent of control (MARK2 (human)): 0.9%; kinase still bound, per cent of control (MERTK (human)): 0.05%; kinase still bound, per cent of control (MINK1 (human)): 1.6%; kinase still bound, per cent of control (NLK (human)): 81%; kinase still bound, per cent of control (OXSR1 (human)): 0.45%; kinase still bound, per cent of control (PAK2 (human)): 16%; kinase still bound, per cent of control (PIK3C2B (human)): 16%; kinase still bound, per cent of control (PIK3CB (human)): 68%; kinase still bound, per cent of control (PRKAA1 (human)): 0.2%; kinase still bound, per cent of control (PRPF4B (human)): 7.4%; kinase still bound, per cent of control (RET (human)): 0%; kinase still bound, per cent of control (RIOK2 (human)): 48%; kinase still bound, per cent of control (STK33 (human)): 0%; kinase still bound, per cent of control (TESK1 (human)): 11%; kinase still bound, per cent of control (TLK2 (human)): 1.9%; kinase still bound, per cent of control (VRK2 (human)): 92%
COCC(=O)NC/C=C/c1ccc2ncnc(Nc3ccc(Oc4ccc(C)nc4)c(C)c3)c2c1 | 100% | 68% | 100% | 100% | 100% | 100% | 91% | 90% | 100% | 100% | 100% | 89% | 100% | 98% | 100% | 0% | 0.9% | 100% | 83% | 100% | kinase still bound, per cent of control (FER (human)): 100%; kinase still bound, per cent of control (LYN (human)): 92%; kinase still bound, per cent of control (MAP3K11 (human)): 92%; kinase still bound, per cent of control (MAPK11 (human)): 100%; kinase still bound, per cent of control (MERTK (human)): 97%; kinase still bound, per cent of control (MINK1 (human)): 77%; kinase still bound, per cent of control (NLK (human)): 100%; kinase still bound, per cent of control (OXSR1 (human)): 100%; kinase still bound, per cent of control (PAK2 (human)): 87%; kinase still bound, per cent of control (PIK3C2B (human)): 88%; kinase still bound, per cent of control (PIK3CB (human)): 100%; kinase still bound, per cent of control (PRKAA1 (human)): 89%; kinase still bound, per cent of control (PRPF4B (human)): 93%; kinase still bound, per cent of control (RET (human)): 87%; kinase still bound, per cent of control (RIOK2 (human)): 100%; kinase still bound, per cent of control (TESK1 (human)): 75%; kinase still bound, per cent of control (TLK2 (human)): 100%; kinase still bound, per cent of control (VRK2 (human)): 100%
